# Laboratory results taken from patent US7585895B2, “Therapeutic substituted cyclopentanes” (Allergan, Inc., priority 2005, dated 2009).
# Columns and labels:
# hEP1 = target: T1, hEP1 (Homo sapiens, UniProt P34995); test: FLIPR calcium signal, EP1; format: cell-based; settings: HEK-293(EBNA)
# T1 construct: expressed in transfected cells
# T1 sequence (P34995 1-402): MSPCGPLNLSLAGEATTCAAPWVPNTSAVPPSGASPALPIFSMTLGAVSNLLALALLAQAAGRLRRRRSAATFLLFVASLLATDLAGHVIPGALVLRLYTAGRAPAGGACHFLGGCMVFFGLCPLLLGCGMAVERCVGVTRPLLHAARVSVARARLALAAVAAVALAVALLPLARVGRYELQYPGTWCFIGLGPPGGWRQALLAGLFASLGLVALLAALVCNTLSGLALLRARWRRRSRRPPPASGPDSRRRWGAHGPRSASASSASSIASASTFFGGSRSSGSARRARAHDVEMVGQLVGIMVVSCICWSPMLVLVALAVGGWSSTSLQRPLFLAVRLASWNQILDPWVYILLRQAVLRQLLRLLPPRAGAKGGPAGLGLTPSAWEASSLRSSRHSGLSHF
# Procedure: (§1) HEK-293(EBNA) cells, stably expressing one type or subtype of recombinant human prostaglandin receptors (prostaglandin receptors expressed: hDP/Gqs5; hEP1; hEP2/Gqs5; hEP3A/Gqi5; hEP4/Gqs5; hFP; hIP; hTP), were cultured in 100 mm culture dishes in high-glucose DMEM medium containing 10% fetal bovine serum, 2 mM 1-glutamine, 250 μg/ml geneticin (G418) and 200 μg/ml hygromycin B as selection markers, and 100 units/ml penicillin G, 100 μg/ml streptomycin and 0.25 μg/ml amphotericin B.
# (§2) Cells were seeded at a density of 5×10^4 cells per well in Biocoat® Poly-D-lysine-coated black-wall, clear-bottom 96-well plates (Becton-Dickinson) and allowed to attach overnight in an incubator at 37° C. Cells were then washed two times with HBSS-HEPES buffer (Hanks Balanced Salt Solution without bicarbonate and phenol red, 20 mM HEPES, pH 7.4) using a Denley Cellwash plate washer (Labsystems). After 45 minutes of dye-loading in the dark, using the calcium-sensitive dye Fluo-4 AM at a final concentration of 2 μM, plates were washed four times with HBSS-HEPES buffer to remove excess dye leaving 100 μl in each well. Plates were re-equilibrated to 37° C. for a few minutes.
# (§3) Cells were excited with an Argon laser at 488 nm, and emission was measured through a 510-570 nm bandwidth emission filter (FLIPR™, Molecular Devices, Sunnyvale, Calif.). Drug solution was added in a 50 μl volume to each well to give the desired final concentration. The peak increase in fluorescence intensity was recorded for each well. On each plate, four wells each served as negative (HBSS-HEPES buffer) and positive controls (standard agonists: BW245C (hDP); PGE2 (HEP1; hEP2/Gqs5; hEP3A/Gqi5; hEP4/Gqs5); PGF2α (hFP); carbacyclin (hIP); U-46619 (hTP), depending on receptor). The peak fluorescence change in each drug-containing well was then expressed relative to the controls.
# (§4) Compounds were tested in a high-throughput (HTS) or concentration-response (CoRe) format. In the HTS format, forty-four compounds per plate were examined in duplicates at a concentration of 10^−5 M. To generate concentration-response curves, four compounds per plate were tested in duplicates in a concentration range between 10^−5 and 10^−11 M. The duplicate values were averaged. In either, HTS or CoRe format each compound was tested on at least 3 separate plates using cells from different passages to give an n≧3.
# hTP = target: T2, hTP (Homo sapiens, UniProt P21731); test: FLIPR calcium signal, TP; format: cell-based; settings: HEK-293(EBNA)
# T2 construct: expressed in transfected cells
# T2 sequence (P21731 1-343): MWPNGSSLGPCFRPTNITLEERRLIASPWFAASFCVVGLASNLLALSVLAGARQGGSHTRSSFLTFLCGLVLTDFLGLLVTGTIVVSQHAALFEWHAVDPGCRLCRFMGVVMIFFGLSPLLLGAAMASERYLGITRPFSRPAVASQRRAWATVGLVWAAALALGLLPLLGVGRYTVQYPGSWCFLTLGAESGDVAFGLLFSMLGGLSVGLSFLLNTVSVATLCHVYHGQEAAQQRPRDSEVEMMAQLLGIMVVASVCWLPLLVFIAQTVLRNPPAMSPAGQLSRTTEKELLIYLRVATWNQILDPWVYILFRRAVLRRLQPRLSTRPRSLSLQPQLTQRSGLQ
# Procedure: as §1, §2, §3, §4
# hDP/Gqs5 = target: T3, hDP/Gqs5 (Homo sapiens, UniProt Q13258); test: FLIPR calcium signal, DP; format: cell-based; settings: HEK-293(EBNA)
# T3 construct: expressed in transfected cells
# T3 sequence (Q13258 1-359): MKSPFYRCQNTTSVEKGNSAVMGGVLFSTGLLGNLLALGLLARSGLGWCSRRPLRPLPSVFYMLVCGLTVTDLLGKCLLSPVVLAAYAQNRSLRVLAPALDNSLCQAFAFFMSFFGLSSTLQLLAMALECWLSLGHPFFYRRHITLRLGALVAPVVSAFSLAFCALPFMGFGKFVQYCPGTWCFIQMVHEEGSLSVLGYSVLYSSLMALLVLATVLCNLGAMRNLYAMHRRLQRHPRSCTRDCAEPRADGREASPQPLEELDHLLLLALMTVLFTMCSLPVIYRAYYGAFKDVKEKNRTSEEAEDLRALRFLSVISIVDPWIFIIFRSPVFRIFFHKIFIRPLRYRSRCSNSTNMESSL
# Procedure: as §1, §2, §3, §4
# hIP = target: T4, hIP (Homo sapiens, UniProt P43119); test: FLIPR calcium signal, IP; format: cell-based; settings: HEK-293(EBNA)
# T4 construct: expressed in transfected cells
# Procedure: as §1, §2, §3, §4
# hFP = target: T5, hFP (Homo sapiens, UniProt P43088); test: FLIPR calcium signal, FP; format: cell-based; settings: HEK-293(EBNA)
# T5 construct: expressed in transfected cells
# Procedure: as §1, §2, §3, §4
# hEP2/Gqs5 = target: T6, hEP2/Gqs5 (Homo sapiens, UniProt P43116); test: FLIPR calcium signal, EP2; format: cell-based; settings: HEK-293(EBNA), value outside parentheses, read-out: Ca2+ Signal-EC50 (nM) EP2
# T6 construct: expressed in transfected cells
# Procedure: as §1, §2, §3, §4
# hEP3A/Gqi5 = target: T7, hEP3A/Gqi5 (Homo sapiens, UniProt P43115); test: FLIPR calcium signal, EP3; format: cell-based; settings: HEK-293(EBNA)
# T7 construct: expressed in transfected cells
# T7 sequence (P43115 1-390): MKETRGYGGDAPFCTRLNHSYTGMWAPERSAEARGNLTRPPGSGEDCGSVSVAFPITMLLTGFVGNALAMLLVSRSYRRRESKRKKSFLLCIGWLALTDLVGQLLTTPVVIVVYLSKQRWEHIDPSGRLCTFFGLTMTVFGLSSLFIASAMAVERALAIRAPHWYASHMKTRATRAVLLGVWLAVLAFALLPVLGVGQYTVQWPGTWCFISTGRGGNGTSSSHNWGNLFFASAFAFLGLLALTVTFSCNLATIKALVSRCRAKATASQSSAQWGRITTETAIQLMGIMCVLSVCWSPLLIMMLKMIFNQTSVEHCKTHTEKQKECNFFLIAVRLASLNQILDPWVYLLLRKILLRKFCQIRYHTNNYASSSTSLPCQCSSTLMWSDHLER
# Procedure: as §1, §2, §3, §4
# hEP4/Gqs5 = target: T8, hEP4/Gqs5 (Homo sapiens, UniProt P35408); test: FLIPR calcium signal, EP4; format: cell-based; settings: HEK-293(EBNA)
# T8 construct: expressed in transfected cells
# Procedure: as §1, §2, §3, §4
# EP2 [1] = target: T9, EP2 (Homo sapiens, UniProt P43116); test: cAMP assay, HEK-EBNA cells expressing EP2; format: cell-based; set-up: expressed in transfected cells; host or cells: HEK-EBNA; settings: value in parentheses in EP2 column, read-out: EP2 EC50 (nM), measurement of cAMP (data in parentheses)
# Procedure: A 384-well drug plate was prepared to contain 6 test compounds, PGE2 and cAMP in 16 serial dilutions in triplicate, using a Biomek station. HEK-EBNA cells expressing a target PG receptor subtype (EP2 or EP4) were suspended in a stimulation buffer (HBSS, 0.1% BSA, 0.5 mM IBMX and 5 mM HEPES, pH 7.4) in a density of 10^4 cells/5 μl. The reaction was initiated by mixing 5 μL drug dilutions with 5 μl of HEK-EBNA cells in a well, carried out for 30 min at room temperature, and followed by the addition of 5 μl anti-cAMP acceptor beads in the control buffer with Tween-20 (25 mM NaCl, 0.03% Tween-20, 5 mM HEPES, pH7.4). After 30 min in the dark at room temperature, the mixtures were incubated with 15 μl biotinylated-cAMP/strepavidin donor beads in Lysis/Detection buffer (0.1% BSA, 0.3% Tween-20 and 5 mM HEPES, pH7.4) for 45 min at the room temperature. Fluorescence changes were read using a Fusion-alpha HT microplate reader.
# EP2 [2] = target: T9, EP2; test: Competition binding, [3H]PGE2, EP2 (Ki); set-up: expressed in transfected cells; membranes or whole cells; settings: HEK 293 cells stably expressing human EP2, [3H]PGE2
# Procedure: Competition binding experiments were performed in a medium containing Hank's balanced salt solution, Hepes 20 mM, pH 7.3, membranes (˜60 μg protein) or 2×10^5 cells from HEK 293 cells stably expressing human EP2 receptors, [^3H]PGE2 (10 nM) and various concentrations of test compounds in a total volume of 300 μl. Reaction mixtures were incubated at 23° C. for 60 min, and were filtered over Whatman GF/B filters under vacuum. Filters were washed three times with 5 ml ice-cold buffer containing 50 mM Tris/HCl (pH 7.3). Non-specific binding was estimated in the presence of excess unlabeled PGE2 (10 μM). Binding data fitted to the binding model for a single class of binding sites, using nonlinear regression analysis. IC50 values thus obtained were converted to Ki using the equation of Ki=(IC50/(1+[L]/KD) where [L] represents PGE2 concentration (10 nM) and KD the dissociation constant for [^3H]PGE2 at human EP2 receptors (40 nM).
# (§5) HEK-293 cells stably expressing the human or feline FP receptor, or EP1, EP2, or EP4 receptors were washed with TME buffer, scraped from the bottom of the flasks, and homogenized for 30 sec using a Brinkman PT 10/35 polytron. TME buffer was added to achieve a final 40 ml volume in the centrifuge tubes (the composition of TME is 100 mM TRIS base, 20 mM MgCl2, […]; 10N HCl is added to achieve a pH of 7.4).
# (§6) The cell homogenate was centrifuged at 19000 r.p.m. for 20 min at 4° C using a Beckman Ti-60 rotor. The resultant pellet was resuspended in TME buffer to give a final 1 mg/ml protein concentration, as determined by Biorad assay. Radioligand binding competition assays vs. [^3H-]17-phenyl PGF2α. (5 nM) were performed in a 100 μl volume for 60 min. Binding reactions were started by adding plasma membrane fraction. The reaction was terminated by the addition of 4 ml ice-cold TRIS-HCl buffer and rapid filtration through glass fiber GF/B filters using a Brandel cell harvester. The filters were washed 3 times with ice-cold buffer and oven dried for one hour.
# (§7) [^3H-] PGE2 (specific activity 180 Ci mmol) was used as the radioligand for EP receptors. [^3H] 17-phenyl PGF2α, was employed for FP receptor binding studies. Binding studies employing EP1, EP2, EP4 and FP receptors were performed in duplicate in at least three separate experiments. A 200 μl assay volume was used. Incubations were for 60 min at 25° C. and were terminated by the addition of 4 ml of ice-cold 50 mM TRIS-HCl, followed by rapid filtration through Whatman GF/B filters and three additional 4 ml washes in a cell harvester (Brandel). Competition studies were performed using a final concentration of 5 nM [^3H]-PGE2, or 5 nM [^3H] 17-phenyl PGF2αand non-specific binding determined with 10^−5M of unlabeled PGE2, or 17-phenyl PGF2α, according to receptor subtype studied.
# EP4 receptors = target: T10, EP4 receptors (Homo sapiens, UniProt P35408); test: Radioligand binding, [3H]PGE2, EP4 (Ki); settings: HEK-293 cells stably expressing EP4, [3H]PGE2
# T10 construct: expressed in transfected cells; membrane pellet
# Procedure: as §5, §6, §7
# Dog ocular hyperemia = format: in vivo; settings: Conc. 0.1 g/100 mL
# [3] = Dog intraocular pressure (Max. ΔIOP); format: in vivo; settings: Canis lupus familiaris, Conc. 0.1 g/100 mL
# [4] = Monkey intraocular pressure (Max. ΔIOP); format: in vivo; settings: Primates, Conc. 0.1 g/100 mL
# T8 sequence (P35408 whole entry): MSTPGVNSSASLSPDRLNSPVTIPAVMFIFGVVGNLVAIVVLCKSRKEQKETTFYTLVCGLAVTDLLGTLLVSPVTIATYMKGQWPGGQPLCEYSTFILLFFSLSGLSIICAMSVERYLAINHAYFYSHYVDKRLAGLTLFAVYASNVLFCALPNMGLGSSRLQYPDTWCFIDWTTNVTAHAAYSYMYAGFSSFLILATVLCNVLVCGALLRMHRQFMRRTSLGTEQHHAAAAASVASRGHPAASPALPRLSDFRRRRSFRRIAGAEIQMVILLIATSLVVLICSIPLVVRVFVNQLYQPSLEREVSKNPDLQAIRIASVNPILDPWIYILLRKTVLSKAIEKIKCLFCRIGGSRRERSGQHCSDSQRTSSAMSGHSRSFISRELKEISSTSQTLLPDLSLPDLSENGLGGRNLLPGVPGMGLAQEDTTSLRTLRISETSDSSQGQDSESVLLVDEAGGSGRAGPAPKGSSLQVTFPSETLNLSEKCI
# T6 sequence (P43116 whole entry): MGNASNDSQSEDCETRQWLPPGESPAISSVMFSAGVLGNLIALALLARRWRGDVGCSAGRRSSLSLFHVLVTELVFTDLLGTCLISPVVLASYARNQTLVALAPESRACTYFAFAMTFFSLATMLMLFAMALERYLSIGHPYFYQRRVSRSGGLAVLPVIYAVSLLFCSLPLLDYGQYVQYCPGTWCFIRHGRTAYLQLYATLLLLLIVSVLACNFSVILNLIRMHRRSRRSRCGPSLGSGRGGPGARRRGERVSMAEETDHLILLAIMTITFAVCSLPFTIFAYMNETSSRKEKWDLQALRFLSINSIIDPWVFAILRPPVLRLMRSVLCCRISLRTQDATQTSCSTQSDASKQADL
# T4 sequence (P43119 whole entry): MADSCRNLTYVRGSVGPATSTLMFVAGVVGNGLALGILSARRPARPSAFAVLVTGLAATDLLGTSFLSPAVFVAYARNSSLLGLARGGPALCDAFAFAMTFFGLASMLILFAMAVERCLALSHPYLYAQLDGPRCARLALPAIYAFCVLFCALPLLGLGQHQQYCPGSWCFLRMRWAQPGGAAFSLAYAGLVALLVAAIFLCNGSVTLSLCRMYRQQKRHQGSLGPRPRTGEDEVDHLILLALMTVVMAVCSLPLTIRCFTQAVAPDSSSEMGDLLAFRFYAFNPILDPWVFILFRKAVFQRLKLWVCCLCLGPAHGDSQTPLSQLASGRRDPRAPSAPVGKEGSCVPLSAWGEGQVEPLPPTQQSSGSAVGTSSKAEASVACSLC
# T9 sequence (P43116 whole entry): as the sequence (P43116 whole entry) above
# T5 sequence (P43088 whole entry): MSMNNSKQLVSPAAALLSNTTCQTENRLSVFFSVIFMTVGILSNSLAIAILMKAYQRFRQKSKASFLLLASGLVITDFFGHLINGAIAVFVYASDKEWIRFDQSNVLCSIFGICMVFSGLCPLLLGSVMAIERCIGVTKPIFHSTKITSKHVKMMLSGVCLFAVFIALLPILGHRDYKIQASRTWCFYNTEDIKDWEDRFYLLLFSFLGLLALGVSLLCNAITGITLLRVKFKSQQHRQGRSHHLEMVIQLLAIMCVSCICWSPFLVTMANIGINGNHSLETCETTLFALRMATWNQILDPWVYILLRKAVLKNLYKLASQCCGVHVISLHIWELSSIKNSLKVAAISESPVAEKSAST
# T10 sequence (P35408 whole entry): as the sequence (P35408 whole entry) above
Compound,Ca2+ Signal-EC50 (nM) EP1 (hEP1),Ca2+ Signal-EC50 (nM) TP (hTP),Ca2+ Signal-EC50 (nM) DP (hDP/Gqs5),Ca2+ Signal-EC50 (nM) IP (hIP),Ca2+ Signal-EC50 (nM) FP (hFP),EC50 (hEP2/Gqs5),Ca2+ Signal-EC50 (nM) EP3 (hEP3A/Gqi5),Ca2+ Signal-EC50 (nM) EP4 (hEP4/Gqs5),EC50 (hEP1; read-out: Ca2+ Signal-EC50 (nM) EP1),EC50 (hEP3A/Gqi5; read-out: Ca2+ Signal-EC50 (nM) EP3),EC50 (EP2 [1]),Ki (EP2 [2]),Ki (EP4 receptors),EC50 (hEP4/Gqs5; read-out: Ca2+ Signal-EC50 (nM) EP4),DOG Max. hpyeremia (Dog ocular hyperemia),change in vivo at 1000 µg/mL [3],change in vivo at 1000 µg/mL [4]
"CCCCCC(O)c1ccc([C@@H]2[C@@H](C/C=C\CCCC(=O)OC)[C@H](Cl)C[C@H]2O)cc1 (mixture of isomers) [Entry 10, (Z)-7-{(1R,2S,3R,5R)-5-Chloro-3-hydroxy-2-[4-(1-hydroxy-hexyl)-phenyl]-cyclopentyl}-hept-5-enoic acid methyl ester]",not active,not active,not active,not active,not active,3960 nM,not active,not active,,,,,,,,,
"CCCCCC(O)c1ccc([C@@H]2[C@@H](CCCc3cccc(C(=O)O)c3)[C@H](Cl)C[C@H]2O)cc1 (stereo partly drawn) [Entry 1, 3-(3-{(1R,2S,3R,5R)-5-Chloro-3-hydroxy-2-[4-(1-hydroxy-hexyl)-phenyl]-cyclopentyl}-propyl)-benzoic acid]",,not active,not active,not active,not active,2450 nM,,not active,917 nM,4150 nM,,,,,,,
"CC(C)(C)CCCC(O)c1ccc([C@@H]2[C@@H](C/C=C\CCCC(=O)O)[C@H](Cl)C[C@H]2O)cc1 (stereo partly drawn) [Entry 19, (Z)-7-{(1R,2S,3R,5R)-5-Chloro-3-hydroxy-2-[4-(1-hydroxy-5,5-dimethyl-hexyl)-phenyl]-cyclopentyl}-hept-5-enoic acid]",,,,,,> 10000 nM,,,,,815 nM,1050 nM,6290 nM,> 10000 nM,,,
CCCCCCc1ccc([C@@H]2[C@@H](C/C=C\CCCC(=O)OC(C)C)[C@H](Cl)C[C@H]2O)cc1 [compound 7],,,,,,,,,,,,,,,0.5,20%,21%
